In the PolyMetriX glass transition set one finds glass transition temperature data, which are given here for 37 compounds.

± gives the standard deviation of the reports.

In turn, `*Oc1ccc(C(c2ccc(Oc3ccc4c(c3)C(=O)N(c3ccc(Cc5ccc(N6C(=O)c7ccc(*)cc7C6=O)cc5)cc3)C4=O)cc2)(C(F)(F)F)C(F)(F)F)cc1` (repeat unit) registered a glass transition temperature of 227.00 ± 4.2 °C.

`*CC(N1C(=O)c2ccccc2C1=O)n1c(=O)c2cc3c(=O)n(*)c(=O)c3cc2c1=O` (repeat unit) came in with a glass transition temperature of 190.00 °C. Same read-out and setting: the result for `*c1cccc(Oc2ccc(P(=O)(c3ccccc3)c3ccc(Oc4ccc(-n5c(=O)c6cc7c(=O)n(*)c(=O)c7cc6c5=O)cc4)cc3)cc2)c1` (repeat unit) reads 254.00 °C; that for `*c1ccc2c(c1)C(=O)N(c1c(F)c(F)c(-c3c(F)c(F)c(N4C(=O)c5ccc(C(*)(C(F)(F)F)C(F)(F)F)cc5C4=O)c(F)c3F)c(F)c1F)C2=O` (repeat unit), 374.50 ± 15 °C. Still for that read-out and setting: the result for `*c1ccc2c(c1)C(=O)N(c1c(F)c(F)c(N3C(=O)c4ccc(C(*)(C(F)(F)F)C(F)(F)F)cc4C3=O)c(F)c1F)C2=O` (repeat unit) reads 375.50 ± 6.4 °C; that for `*c1ccc2c(c1)C(=O)N(c1cc(C(F)(F)F)c(N3C(=O)c4ccc(C(*)(C(F)(F)F)C(F)(F)F)cc4C3=O)cc1C(F)(F)F)C2=O` (repeat unit), 365.00 °C; that for `*c1ccc2c(c1)C(=O)N(c1cc(N3C(=O)c4ccc([Si](*)(C)C)cc4C3=O)cc(C(F)(F)F)c1)C2=O` (repeat unit), 263.00 °C.

As for `*c1ccc2c(c1)C(=O)N(c1ccc(-c3ccc(N4C(=O)c5ccc(C(*)(C(F)(F)F)C(F)(F)F)cc5C4=O)cc3Br)c(Br)c1)C2=O` (repeat unit), the glass transition temperature was found to be 329.00 °C. The same measure, in the same setting: the result for `*c1ccc2c(c1)C(=O)N(c1ccc(-c3ccc(N4C(=O)c5ccc(C(*)(C(F)(F)F)C(F)(F)F)cc5C4=O)cc3-c3ccc(C(F)(F)F)cc3)c(-c3ccc(C(F)(F)F)cc3)c1)C2=O` (repeat unit) reads 283.00 °C; that for `*c1ccc2c(c1)C(=O)N(c1ccc(-c3ccc(N4C(=O)c5ccc(C(*)(C(F)(F)F)C(F)(F)F)cc5C4=O)cc3-c3ccc(-c4ccccc4)cc3)c(-c3ccc(-c4ccccc4)cc3)c1)C2=O` (repeat unit), 285.00 °C; that for `*c1ccc2c(c1)C(=O)N(c1ccc(-c3ccc(N4C(=O)c5ccc(C(*)(C(F)(F)F)C(F)(F)F)cc5C4=O)cc3I)c(I)c1)C2=O` (repeat unit), 319.00 °C.

`*c1ccc2c(c1)C(=O)N(c1ccc(Oc3c(F)c(F)c(Oc4ccc(N5C(=O)c6ccc(C(*)(C(F)(F)F)C(F)(F)F)cc6C5=O)cc4)c(F)c3F)cc1)C2=O` (repeat unit): the glass transition temperature was 243.80 °C. Still for that read-out and setting: the result for `*c1ccc2c(c1)C(=O)N(c1ccc(OCC(F)(F)C(F)(F)C(F)(F)C(F)(F)C(F)(F)C(F)(F)F)c(N3C(=O)c4ccc(C(*)(C(F)(F)F)C(F)(F)F)cc4C3=O)c1)C2=O` (repeat unit) reads 228.00 °C; that for `*c1ccc2c(c1)C(=O)N(c1ccc(P(=O)(c3ccccc3)c3ccc(N4C(=O)c5ccc(C(*)(C(F)(F)F)C(F)(F)F)cc5C4=O)cc3)cc1)C2=O` (repeat unit), 345.00 °C.

Compound `*C(=O)c1ccc2c(c1)C(=O)N(c1ccc(C(=O)c3ccccc3N3C(=O)c4ccc(*)cc4C3=O)cc1)C2=O` (repeat unit) came in with a glass transition temperature of 289.00 °C.

In turn, `*c1cccc2c1C(=O)N(c1ccc(C3(c4ccc(N5C(=O)c6cccc(*)c6C5=O)c(C)c4)CCCCC3)cc1C)C2=O` (repeat unit) yielded a glass transition temperature of 302.50 ± 3.5 °C. As for `*Sc1ccc2c(c1)C(=O)N(c1cc(Cc3ccc(N4C(=O)c5cccc(*)c5C4=O)c(C)c3)ccc1C)C2=O` (repeat unit), the glass transition temperature turned out to be 257.50 ± 11 °C. On to `*Sc1ccc2c(c1)C(=O)N(c1ccc(N3C(=O)c4cccc(*)c4C3=O)cc1)C2=O` (repeat unit), for which the glass transition temperature was 319.50 ± 0.7 °C. Same read-out and setting: the result for `*Sc1cccc2c1C(=O)N(c1ccc(Oc3ccc(N4C(=O)c5cccc(*)c5C4=O)cc3)cc1)C2=O` (repeat unit) reads 287.00 ± 8.5 °C. The same measure, in the same setting: the result for `*C1=C(Cl)C(=O)N(c2cccc(N3C(=O)C(Cl)=C(Oc4ccc(C(C)(C)c5ccc(*)cc5)cc4)C3=O)c2)C1=O` (repeat unit) reads 163.00 °C; that for `*Oc1cccc(C(=O)c2ccc(Oc3ccc4c(c3)C(=O)N(c3cccc(N5C(=O)c6ccc(*)cc6C5=O)c3)C4=O)cc2)c1` (repeat unit), 239.00 °C; that for `*c1ccc2c(c1)C(=O)N(c1cccc(Oc3cccc(N4C(=O)c5cccc(*)c5C4=O)c3)c1)C2=O` (repeat unit), 245.00 ± 1.5 °C. In turn, `*Oc1ccc2c(c1)C(=O)N(c1ccc(Oc3ccc(Oc4cccc(N5C(=O)c6cccc(*)c6C5=O)c4)cc3)cc1)C2=O` (repeat unit) yielded a glass transition temperature of 249.00 ± 5.7 °C. In turn, `*C(=O)c1ccc2c(c1)C(=O)N(c1ccccc1Oc1ccccc1N1C(=O)c3ccc(*)cc3C1=O)C2=O` (repeat unit) returned a glass transition temperature of 289.00 °C. Regarding `*c1cccc(C(c2cccc(-n3c(=O)c4cc5c(=O)n(*)c(=O)c5cc4c3=O)c2)(C(F)(F)F)C(F)(F)F)c1` (repeat unit), the glass transition temperature is 296.00 °C.

This is another data set of the same source.
As to `*C=Cc1cc(OC)c(*)cc1OCC(CC)CCCC` (repeat unit), the glass transition temperature stood at 66.00 °C. Still for that read-out and setting: the result for `*C=Cc1cc(OC)c(*)cc1OCCC(C)CCCC(C)C` (repeat unit) reads 50.00 °C; that for `*c1ccc2c(c1)C(CCCCCCCC)(CCCCCCCC)c1cc(-c3ccc(-c4ccc(-c5ccc(*)s5)c5cc(-c6ccccc6)c(-c6ccccc6)nc45)s3)ccc1-2` (repeat unit), 142.00 °C. In the case of `*c1ccc2c3ccc(-c4sc(-c5ccc(-c6cc(CCCCCC)c(*)s6)c6nsnc56)cc4CCCCCC)cc3n(C(CCCCCCCC)CCCCCCCC)c2c1` (repeat unit), the glass transition temperature stood at 74.00 °C. As to `*c1ccc(-c2ccc(OCCCC)c(-c3cc(*)ccc3OCCCC)c2)cc1` (repeat unit), the glass transition temperature is 164.00 °C. Regarding `*c1ccc(-c2ccc(OCCCCCCCCCC)c(-c3cc(*)ccc3OCCCCCCCCCC)c2)cc1` (repeat unit), the glass transition temperature was determined as 58.00 °C.

The source holds these as a separate data set.
Compound `*CC(*)C(=O)NCCCCCCCC` (repeat unit) [Poly(N-octyl acrylamide)] came in with a glass transition temperature of -53 °C. On the same count and under the same terms, as for `*CC(*)C(=O)OCC#N` (repeat unit) [Poly(cyanomethyl acrylate)], the figure is 23 °C; as for `*CC(*)Br` (repeat unit) [Poly(vinyl bromide)], 100 °C. Compound `*CC(*)C(=O)CC` (repeat unit) [Poly(vinyl ethyl ketone)] gave a glass transition temperature of -60 °C.

This is another data set of the same source.
On to `*c1nc(C(F)(F)C(F)(F)OC(F)(F)F)nc(C(F)(F)C(F)(F)C(F)(F)C(*)(F)F)n1` (repeat unit) [Perfluoropolymer 2 ], for which the glass transition temperature is -18.6 ± 0.7 °C. As for `*CC=C(C*)CCC` (repeat unit) [Poly(2-n-propyl-1 ,4-butadiene) ], the glass transition temperature is -77.6 ± 0.7 °C.
